Measured values from PubChem BioAssay AID1013 (Columbia University Molecular Screening Center, 2008).
Calls of active or inactive are those of the source. No rule for the calls is given here.

What was measured:
[1] = blockers of VCAM1 upregulation by TNFa – imaging, TNFa stimulus, retest and dose response, confirmation (AID 1013); details: TNFa-stimulated cells, VCAM1 expression imaging; for cell count: at 10 µM, stronger effect = lower value; for inhibition: at 2 µM, stronger effect = higher value;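 as to cell count: compound on cells 1 h before TNFa then 24 h more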
[2] = test system: TNFa-stimulated cells, VCAM1 expression imaging; assay: as above

Work on `O=S(=O)(c1ccc(Cl)cc1)c1snnc1-c1ccccc1` yielded a cell count [1] of 71.6% and an IC50 [2] of 4.86 µM.

Compound `COc1cc2c(O)c3c(c(-c4ccc5c(c4)OCO5)c2cc1OC)C(=O)OC3` has a cell count [1] of 86.8% and an IC50 [2] of 3.24 µM.

For `CC(=O)c1ccc(Oc2cc(C)nc(-n3nc(C)cc3C)n2)cc1`, the cell count [1] was 46.9% and the IC50 [2] was 3.83 µM.

With `CCOc1ccc(S(=O)(=O)Nc2cc(OC)ccc2OC)cc1` the cell count [1] was 45.4% and the IC50 [2] was 1.78 µM.

For `Cc1c(C(=O)OCC(C)C)[nH]c2c1C(=O)CC(c1ccco1)C2` (stereo not given), the cell count [1] was 48.4% and the IC50 [2] was > 10 µM (inactive).

Work on `CCCOc1ccc(C(=O)C(CN2CCOCC2)c2ccccc2)cc1` (stereo not given) yielded a cell count [1] of 79.7% and an IC50 [2] of 5.2 µM.

In the case of `COC(=O)C[C@]1(C(=O)OC)CN(C#N)N(c2ccc(Cl)cc2)C12c1ccccc1-c1ccccc12`, the cell count [1] is reported as 104% and the IC50 [2] is reported as > 10 µM (inactive).

In the case of `NC(=S)N/N=C/c1ccc(-c2ccc(Cl)c(Cl)c2)o1`, the cell count [1] is reported as 93.5% and the IC50 [2] is reported as > 10 µM (inactive).

With `Cc1ccccc1CS(=O)(=O)c1nnc([C@H](Cc2ccccc2)NC(=O)OC(C)(C)C)o1` the cell count [1] was 114% and the IC50 [2] was > 10 µM (inactive).

Work on `C#CC(=O)N(c1cccc(OC)c1)C(C(=O)NC1CCCC1)c1cccs1` (stereo not given) yielded a cell count [1] of 0.98% and an IC50 [2] of 1.77 µM.

Compound `CC1CC(=O)NN=C1c1ccc(NCCO)c([N+](=O)[O-])c1` (stereo not given) has a cell count [1] of 71.6% and an IC50 [2] of 0.051 µM.

For `Cc1cc(C)c(S(=O)(=O)Nc2ccc3c4c(cccc24)CC3)c(C)c1`, the cell count [1] was 106% and the IC50 [2] was > 10 µM (inactive).

With `CC1=C([N+](=O)[O-])C(c2cccc(Br)c2)C2=C(N1)c1ccccc1C2=O` (stereo not given) the cell count [1] was 68.1% and the IC50 [2] was > 10 µM (inactive).

With `CCOc1cc(/C=N\NC(=O)Cc2ccccc2)ccc1OCC(=O)Nc1ccc(C)c(C)c1` the cell count [1] was 110% and the IC50 [2] was > 10 µM (inactive).

In the case of `O=c1cc(C(Cl)(Cl)Cl)oc2c1ccc1ccccc12`, the cell count [1] is reported as 104% and the IC50 [2] is reported as > 10 µM (inactive).

For `O=C1c2cccc3c([N+](=O)[O-])ccc(c23)C(=O)N1c1nccs1`, the cell count [1] was 101% and the IC50 [2] was > 10 µM (inactive).

Compound `O=C(c1ccco1)N1CCN(C(=O)N2c3ccccc3Sc3ccccc32)CC1` has a cell count [1] of 40.3% and an IC50 [2] of 3.52 µM.

With `CCN(CC)c1ccc(-c2nn3c(-c4n[nH]c5c4CCC5)nnc3s2)cc1` the cell count [1] was 57.7% and the IC50 [2] was > 10 µM (inactive).

Compound `Cc1ccc(Nc2nc(-c3c(C)nc4ccccn34)cs2)cc1` has a cell count [1] of 27.9% and an IC50 [2] of 3.8 µM.

For `CCN(CC)c1ccc2cc(-c3nc4ccccc4n3C)c(=O)oc2c1`, the cell count [1] was 106% and the IC50 [2] was > 10 µM (inactive).

For `COc1cc(C2C(C#N)=C(C)NC3=C2C(=O)c2ccccc23)cc(OC)c1OC` (stereo not given), the cell count [1] was 32% and the IC50 [2] was 0.221 µM.

`CCN1/C(=C\C=C\C2=[N+](CC)c3ccccc3C2(C)C)C(C)(C)c2ccccc21` showed a cell count [1] of 60.4% and an IC50 [2] of 0.41 µM.

In the case of `Cc1cc(NC(=O)CSc2nc(-c3cccs3)cc(C(F)(F)F)n2)no1`, the cell count [1] is reported as 111% and the IC50 [2] is reported as > 10 µM (inactive).

For `Cc1cc(NC(=O)CSc2nc(-c3ccco3)cc(C(F)(F)F)n2)no1`, the cell count [1] was 94.3% and the IC50 [2] was > 10 µM (inactive).

Work on `COc1ccc(CS(=O)(=O)/C(Cl)=C(/Cl)C(=O)Nc2ccc(OC)nc2)cc1` yielded a cell count [1] of 2.22% and an IC50 [2] of 2 µM.

`Cc1ccc(C(=O)OCn2ncc(Cl)c(Cl)c2=O)cc1` gave an IC50 [2] of 2.31 µM.

For `CCCCCCCCCCn1c2c(c(=N)c3c1CCC3)CCC2`, the IC50 [2] was 0.55 µM.

In the case of `O=[N+]([O-])c1ccc(/C=N/n2c(COc3ccccc3)n[nH]c2=S)cc1`, the inhibition [1] is reported as -9.2% (inactive).

In the case of `COc1ccc(Cl)c(NC(=O)Nc2c(C)n(-c3ccccc3)c(=O)n2C)c1`, the inhibition [1] is reported as -17.4% (inactive).

With `CCN1CCN(Cc2c(C)[nH]c3ccc(C(=O)OC)cc3c2=O)CC1` the inhibition [1] was 8.5% (inactive).

In the case of `Cc1cccnc1N(C(=O)Nc1ccccc1)C1=NCC(C)(C)S1`, the inhibition [1] is reported as -11.8% (inactive).

In the case of `CCCCOCCCNC(=O)c1cccs1`, the inhibition [1] is reported as -15.4% (inactive).

In the case of `COc1ccc(OC)c2sc(NC(=O)CCS(=O)(=O)c3ccccc3)nc12`, the inhibition [1] is reported as 23% (inactive).

For `Cn1c(NCc2c[nH]c3ccccc23)nc2ccccc21`, the inhibition [1] was 18% (inactive).

For `CCCn1nc([N+](=O)[O-])c(C(C#N)c2nc3ccccc3s2)c(Cl)c1=O` (stereo not given), the inhibition [1] was 18.2% (inactive).

With `Cc1nc(SCc2ccc(Br)cc2)[nH]c(=O)c1C` the inhibition [1] was 5.1% (inactive).

With `CC(=NCCCO)c1c(O)n(Cc2ccccc2)c(=O)[nH]c1=O` the inhibition [1] was -13.3% (inactive).

For `Cc1cc(NC(=O)NC(=O)c2cccc(OC(F)(F)C(F)F)c2)n[nH]1`, the inhibition [1] was 3.8% (inactive).

In the case of `C=CCOc1c2ccc(C(=O)NCc3ccccc3OC)cc2nn1C`, the inhibition [1] is reported as 4.3% (inactive).

With `CCNC(=O)CCn1nc(-c2ccc(Cl)cc2)c2ccccc2c1=O` the inhibition [1] was -0.3% (inactive).

For `Cc1ccc(F)cc1NC(=O)c1ccc2c(c1)OCO2`, the inhibition [1] was -22.8% (inactive).

For `CC(=O)c1cccc(Nc2nc(-c3cccc([N+](=O)[O-])c3)cs2)c1`, the inhibition [1] was 9.3% (inactive).

With `CSc1ccc(CNC2CN3CCC2CC3)cc1` (stereo not given) the inhibition [1] was 6.9% (inactive).

With `Cc1cc(C)cc(OCC(=O)Nc2nonc2NC(=O)COc2cc(C)cc(C)c2)c1` the inhibition [1] was 12.1% (inactive).

For `O=S(=O)(c1cccc(-n2cnnn2)c1)N1CCOCC1`, the inhibition [1] was -4.6% (inactive).

With `O=C(CS(=O)(=O)c1cn(Cc2cccc(F)c2)c2ccccc12)N1CCCCC1` the inhibition [1] was -4.4% (inactive).

With `O=C(c1ccc(Cl)cc1)N1CCCOC1` the inhibition [1] was -7.1% (inactive).

With `C=CCn1c(N)c(C(=O)OCC(C)C)c2nc3ccccc3nc21` the inhibition [1] was -3.5% (inactive).

For `CSC1=NCCN1C(=O)Cc1ccc(Cl)cc1`, the inhibition [1] was -11.8% (inactive).

With `Cc1cccnc1Nc1nc(-c2ccccn2)cs1` the inhibition [1] was -2.3% (inactive).

With `CSCCC(NC(=O)OCc1ccccc1)C(=O)O` (stereo not given) the inhibition [1] was 6.7% (inactive).

With `COC(=O)c1ccccc1NC(NC(=O)c1ccco1)C(=O)c1ccc(C)cc1` (stereo not given) the inhibition [1] was -5.6% (inactive).

For `COC(=O)c1sccc1NC(=O)c1ccc(Br)s1`, the inhibition [1] was 4% (inactive).

For `N/C(Cc1cccs1)=N\OC(=O)COc1ccc(Br)cc1Cl`, the inhibition [1] was 8.2% (inactive).

For `O=c1c(-c2ccc(Br)cc2)coc2c(CN3CCOCC3)c(O)ccc12`, the inhibition [1] was -12.4% (inactive).

For `COc1ccc(-c2cc(C(F)(F)F)nc(S(=O)(=O)CCC(=O)N3CCOCC3)n2)cc1`, the inhibition [1] was 20.8% (inactive).

For `CCCc1nnc(SCC(=O)O)n1/N=C/c1ccc2c(c1)OCO2`, the inhibition [1] was -2% (inactive).

With `CCOC(=O)c1cnn(-c2nc3c(C)cccc3s2)c1C` the inhibition [1] was 11% (inactive).

For `CC(C)(CO)NC(=O)CCCOc1ccc(Cl)cc1Cl`, the inhibition [1] was -18.9% (inactive).

For `CSc1nnc2n(-c3ccccc3)c(=O)c3c4c(sc3n12)CCC4`, the inhibition [1] was -8.1% (inactive).

With `COc1ccc(CCN(Cc2cc3cccc(C)c3[nH]c2=O)C(=O)N2CCCC2)cc1OC` the inhibition [1] was 5.6% (inactive).

For `O=c1ccc(Oc2nc(N3CCOCC3)nc(N3CCOCC3)n2)nn1-c1ccccc1`, the inhibition [1] was 9% (inactive).

With `COc1ccc(-c2nc(-c3ccc(NC(=O)c4ccc(Br)o4)cc3)no2)cc1OC` the inhibition [1] was 11.9% (inactive).

With `O=C(O)c1ccccc1Nc1ccccc1C(=O)O` the inhibition [1] was 0.6% (inactive).

In the case of `COc1ccc(CN2C(=O)[C@@H]3C(c4ccc(F)cc4)=NO[C@@H]3C2=O)cc1`, the inhibition [1] is reported as -6.1% (inactive).

For `CCC(C)C1C(C#N)=C(N)Oc2n[nH]c(-c3ccccc3)c21` (stereo not given), the inhibition [1] was -12.6% (inactive).

For `CCCOc1ccc(/C(O)=C2/C(=O)C(=O)N(CCOC)C2c2cccnc2)cc1` (stereo not given), the inhibition [1] was 8.7% (inactive).

With `CCOC(=O)c1ccc(NC(=O)Cn2nnc(-c3ccccc3)n2)cc1` the inhibition [1] was -10% (inactive).

In the case of `Cc1ccccc1-c1nc(CN2CCC(C(=O)NCCCN3CC(C)CC(C)C3)CC2)c(C)o1` (stereo not given), the inhibition [1] is reported as 21.3% (inactive).

With `CCCCSc1nc(C)cc(SCC(=O)N/N=C/c2cccc(OC)c2O)n1` the inhibition [1] was 22.8% (inactive).

In the case of `CC1Oc2ccccc2C=C1/C=C1/SC(N2CCOCC2)=NC1=O` (stereo not given), the inhibition [1] is reported as -2.1% (inactive).

With `COc1ccccc1-n1cnc2cc(NCc3cccs3)ccc21` the inhibition [1] was -3.5% (inactive).

For `O=C(/C(=C/c1ccc(Cl)cc1)c1nc2ccccc2[nH]1)c1cccs1`, the inhibition [1] was 32.1% (inactive) and the cell count [1] was 83.7%.

With `CC(Sc1nc(N)cc(=O)[nH]1)C(=O)NC1CCCCC1` (stereo not given) the inhibition [1] was -7.6% (inactive).

With `CCOC1=NC(C(=O)O)c2ccccc2/C(=C(/C)Cl)N1` (stereo not given) the inhibition [1] was 7.8% (inactive).

In the case of `COc1ccc(-c2cc3ccc(OCc4nn[nH]n4)cc3oc2=O)cc1OC`, the inhibition [1] is reported as -18.3% (inactive).

For `COc1ccc(-c2nnc(SCC(=O)NC3CCCCC3)o2)cc1OC`, the inhibition [1] was -4.1% (inactive).

For `CC(C)Sc1nc2c(c(=O)n1-c1ccc(F)cc1)SCC2`, the inhibition [1] was 7.4% (inactive).

With `Cc1cccc(N=C2NC(=O)CS2)c1C` the inhibition [1] was -7.6% (inactive).

In the case of `c1ccc(-c2nnc(CSc3nncs3)o2)cc1`, the inhibition [1] is reported as -12% (inactive).

For `Cc1ccccc1Cn1nc(C)c(NC(=O)c2cc(-c3cccs3)on2)c1C`, the inhibition [1] was -4.7% (inactive).

In the case of `C/C(=C\C(=O)c1cccnc1)Nc1ccc(C)c(C)c1`, the inhibition [1] is reported as -15.6% (inactive).

With `Cc1cc(OCc2ccc(F)cc2)nc(-c2ccccc2O)n1` the inhibition [1] was -12.1% (inactive).

In the case of `NC(=S)N/N=C/c1ccc(-c2cc(Cl)ccc2Cl)o1`, the inhibition [1] is reported as 34.6% (inactive) and the cell count [1] is reported as 90.8%.

In the case of `CCc1cccc(CC)c1NC(=O)C1SC(=Nc2ccccc2C)C(c2nc3ccccc3s2)=C1N` (stereo not given), the inhibition [1] is reported as 3.9% (inactive).

In the case of `COc1ccc2[nH]c(=O)c(CN(C(=O)c3ccncc3)C(C)C)cc2c1`, the inhibition [1] is reported as -5.2% (inactive).

For `CO/N=C/C(=N\Nc1ccc(C)cc1)C(=O)c1ccc(OC)cc1`, the inhibition [1] was 29% (inactive).

With `CCOC(=O)Cn1nnnc1CN(CCc1ccccc1)Cc1cc2cc(CC)ccc2[nH]c1=O` the inhibition [1] was 3.3% (inactive).

In the case of `COc1cc(/C=N/NC(=O)Nc2ccccc2)ccc1OCCOc1ccccc1C`, the inhibition [1] is reported as 33.1% (inactive).

With `C=CCn1c(N2CCCC2)nc2c1c(=O)[nH]c(=O)n2C` the inhibition [1] was 7.9% (inactive).

With `CN(CC(=O)NCc1ccncc1)S(=O)(=O)c1ccc(F)cc1` the inhibition [1] was 0.2% (inactive).

For `Clc1ccc(-n2ncc3c(NCc4ccc5c(c4)OCO5)ncnc32)cc1`, the inhibition [1] was 5.1% (inactive).

With `CC(NC(=O)COC(=O)Cc1ccsc1)C1CC2CCC1C2` (stereo not given) the inhibition [1] was 3.4% (inactive).
